Reference: patent publication US8575068B2, “Pyrazinothiazines having herbicidal action” (BASF SE, priority 2010, dated 2013)

Tested on: Galium aparine
Assay: Greenhouse post-emergence herbicidal activity against GALAP
Format: in vivo
Details: application rate 0.5 kg/ha, scale 0 to 100
Source text: The seeds of the test plants were sown separately for each species. For the post-emergence treatment, the test plants were first grown to a height of 3 to 15 cm, depending on the plant habit, and only then treated with the active ingredients which had been suspended or emulsified in water. For this purpose, the test plants were either sown directly and grown in the same containers, or they were first grown separately as seedlings and transplanted into the test containers a few days prior to treatment. Depending on the species, the plants were kept at 10-25° C. or 20-35° C. The test period extended over 2 to 4 weeks. During this time, the plants were tended, and their response to the individual treatments was evaluated. Evaluation was carried out using a scale from 0 to 100. 100 means no emergence of the plants, or complete destruction of at least the aerial moieties, and 0 means no damage, or normal course of growth. A good herbicidal activity is given at values of at least 70 and a very good herbicidal activity is given at values of at least 85. The plants used in the greenhouse experiments belonged to the following species: [table]

COCCOc1cccc(C2=C(O)c3nccnc3N(CC(F)F)S2(=O)=O)c1C(F)(F)F [I-6, 1-(2,2-difluoroethyl)-3-[3-(2-methoxyethoxy)-2-(trifluoromethyl)phenyl]-2,2-dioxo-pyrazino[2,3-c]thiazin-4-ol]
herbicidal activity against GALAP: very good (a very good herbicidal activity is given at values of at least 85)
